Legend:
[1] = system: prostate cancer cell lines (PC-3, 22Rv1, DU145 and LNCaP); test: MTT assay, mean over four prostate cancer cell lines; assay type: cell-based; details: Homo sapiens; mean of MTT IC50 in PC-3, 22Rv1, DU145 and LNCaP; from Table S1 values; read-out: mean IC50 in cancer cells
Description: (§1) Next, SAR analysis was performed to identify the structural elements that are beneficial for anticancer activity of the fascaplysin-related molecules. Considering the complex and heterogeneous nature of tumors even within the same patient, we used calculated mean IC50 values of each drug in all prostate cancer cells for further analysis (Figure 2A). To identify the drug candidates with the highest therapeutic potential, the selectivity index (SI) was calculated as mean IC50 in non-cancer cells versus mean IC50 in cancer cells (Figure 2B), or as a mean IC50 in non-cancer (MRC-9 and HEK293) cells versus mean IC50 in prostate cells (cancer PC-3, 22Rv1, DU145, LNCaP and non-cancer PNT2 cells) (Figure 2C). Finally, to estimate the effects on cellular metabolism, we compared the activity evaluated by using trypan blue assay versus MTT assay (Figure 2D). Effect of the drugs on cell viability in terms of metabolic activity was assessed by MTT assay, as previously reported. Cells were pre-incubated overnight in 96-well plates (6 × 10^3 cells/well in 100 μL/well) in the correspondent culture media. Then, the medium was replaced with fresh 10% FBS/RPMI medium containing the investigated compounds (100 μL/well), and cells were incubated for 48 h, unless otherwise stated. Next, 10 μL/well of (3-(4,5-dimethylthiazol-2-yl)-2,5-diphenyltetrazolium bromide) reagent (MTT, 5 mg/mL) was added. After 2-4 h of incubation, the media was aspirated and the plates were dried. Then, 50 μL/well of DMSO was added to each well and the cell viability was measured using an Infinite […] reader (TECAN, Männedorf, Switzerland). Results were calculated using the GraphPad Prism software v.9.1.1 (GraphPad Software, San Diego, CA, USA) and are represented as IC50 of the compounds calculated using the cells treated with the solvent alone as a control.

HEK-293 cells = test: MTT assay, HEK-293 cells; assay type: cell-based, human; details: Homo sapiens, HEK293; non-cancer cells; 48 h of treatment; mean ± SD
Description: (§2) The human prostate cancer cell lines PC-3, DU145, 22Rv1 and LNCaP, as well as human prostate non-cancer cell line PNT2 were purchased from ATCC (Manassas, VA, USA). HEK 293T (human embryonic kidney cells) and MRC-9 (human fibroblast cells) cell lines were purchased from ECACC (Salisbury, UK). […] Authentication of all cell lines used was recently performed by a commercial service (Multiplexion GmbH, Heidelberg, Germany).
(§3) Cells were cultured as monolayers at 37 °C in a humidified atmosphere with 5% (v/v) CO2 in the correspondent culture medium: 10% FBS/RPMI medium (RPMI medium supplemented with Glutamax^TM-I (gibco® Life technologies^TM, Paisley, UK) containing 10% fetal bovine serum (FBS, gibco® Life technologies^TM) and 1% penicillin/streptomycin (Invitrogen)) for PNT2, LNCaP, 22Rv1, PC-3 and DU145 and cells; 10% FBS/DMEM medium (DMEM medium supplemented with Glutamax^TM-I (gibco® Life technologies^TM) containing 10% FBS and 1% penicillin/streptomycin (gibco® Life technologies^TM)) for MRC-9 and HEK 293 cells. Cells were continuously kept in culture for a maximum of 3 months, and were regularly checked for stable phenotype and mycoplasma infection.
(§4) Effect of the drugs on cell viability in terms of metabolic activity was assessed by MTT assay, as previously reported. Cells were pre-incubated overnight in 96-well plates (6 × 10^3 cells/well in 100 μL/well) in the correspondent culture media. Then, the medium was replaced with fresh 10% FBS/RPMI medium containing the investigated compounds (100 μL/well), and cells were incubated for 48 h, unless otherwise stated. Next, 10 μL/well of (3-(4,5-dimethylthiazol-2-yl)-2,5-diphenyltetrazolium bromide) reagent (MTT, 5 mg/mL) was added. After 2–4 h of incubation, the media was aspirated and the plates were dried. Then, 50 μL/well of DMSO was added to each well and the cell viability was measured using an Infinite F200PRO reader (TECAN, Männedorf, Switzerland). Results were calculated using the GraphPad Prism software v.9.1.1 (GraphPad Software, San Diego, CA, USA) and are represented as IC50 of the compounds calculated using the cells treated with the solvent alone as a control.

22Rv1 cells [2] = test: DNA fragmentation (apoptosis, sub-G1), flow cytometry with PI staining; assay type: cell-based, human; details: treated at IC50 (MTT assay) for 48 h, mean ± SD
Description: (§5) The effects on cell cycle progression and DNA fragmentation were analyzed by flow cytometry using PI staining, as described before. Cells (2 × 10^5 cells/well) were pre-incubated overnight in 6-well plates and then treated with the investigated drugs in fresh culture media (2 mL/well) for 48 h. Cells were harvested by trypsinization, fixed in 70% EtOH, stained with PI solution and analyzed by FACS Calibur (BD Bioscience, San Jose, CA, USA). The results were quantified using BD Bioscience Cell Quest Pro v.5.2.1. software (BD Bioscience). The cells appearing as a sub-G1 population (containing fragmented DNA) were considered to be apoptotic.

22Rv1 cells [3] = test: Trypan blue-based viability assay; assay type: cell-based, human; details: Homo sapiens, 48 h of treatment, mean ± SD, read-out: IC50, trypan blue staining assay
Description: The effect of the drugs on cell viability in terms of cellular membrane integrity was evaluated by the trypan blue exclusion assay as described before. In brief, cells (0.2 × 10^6 cells/well) were seeded in 6-well plates and incubated overnight, and the media was replaced with fresh media (1 mL/well) containing drugs at indicated concentrations. After treatment for 48 h, the cells were harvested by trypsinization, stained with trypan blue and the viability was measured using an automatic Beckman Coulter Vi-CELL (Beckman Coulter, Krefeld, Germany). Trypan blue-positive cells were assumed to have damaged cellular membrane (i.e., dead), whereas trypan blue-negative cells were considered to have an intact cellular membrane (i.e., alive).

DU145 cells = test: MTT assay, DU145 cells; assay type: cell-based, human; details: Homo sapiens, DU-145; prostate cancer cells; 48 h of treatment; mean ± SD
Description: as §2, §3, §4

PNT2 cells = test: MTT assay, PNT2 cells; assay type: cell-based, human; details: Homo sapiens, PNT2; non-cancer cells; 48 h of treatment; mean ± SD
Description: as §2, §3, §4

22Rv1 cells [4] = test: MTT assay, 22Rv1 cells; assay type: cell-based, human; details: Homo sapiens, 22Rv1; prostate cancer cells; 48 h of treatment; mean ± SD
Description: as §2, §3, §4

MRC-9 cells = test: MTT assay, MRC-9 cells; assay type: cell-based, human; details: Homo sapiens, MRC9; non-cancer cells; 48 h of treatment; mean ± SD
Description: as §2, §3, §4

[5] = system: non-cancer cell lines versus cancer cell lines; test: Selectivity index from MTT IC50s; assay type: cell-based, human; details: for Selectivity index, IC50 (non-prostate) / IC50 (prostate): mean IC50 MRC-9 and HEK-293 versus mean IC50 prostate cancer cell lines plus PNT2; for Selectivity index, IC50 (non-prostate) / IC50 (prostate) / Selectivity index, IC50 (non-cancer) / IC50 (cancer): MTT; for Selectivity index, IC50 (non-cancer) / IC50 (cancer): mean IC50 non-cancer cell lines versus mean IC50 cancer cell lines
Description: as §1

LNCaP cells = test: MTT assay, LNCaP cells; assay type: cell-based, human; details: Homo sapiens, LNCaP; prostate cancer cells; 48 h of treatment; mean ± SD
Description: as §2, §3, §4

PC-3 cells = test: MTT assay, PC-3 cells; assay type: cell-based, human; details: Homo sapiens, PC-3; prostate cancer cells; 48 h of treatment; mean ± SD
Description: as §2, §3, §4

22Rv1 cells [6] = test: Cell cycle progression, flow cytometry with PI staining; assay type: cell-based, human; details: treated at IC50 (MTT assay) for 48 h
Description: as §5

[7] = system: double-stranded calf thymus DNA; test: Thiazole orange displacement (DNA intercalation) assay; assay type: binding; details: 1 µM calf thymus DNA base pairs, 2 µM thiazole orange; 7 min at room temperature; mean ± SD
Description: DNA intercalation activity of the compounds was calculated as an ability to displace thiazole orange (TO) from the double-stranded DNA. For this experiment, a mixture (100 µL) containing 1 µM of double-stranded calf thymus DNA (recalculated as a concentration of base pairs) and 2 µM of thiazole orange (TO) solved in water was prepared. Then, the investigated compounds were added up to final concentrations of 0.39–25 µM; DMSO concentration in the samples was <0.02%. Propidium iodide (PI, positive control) was added up to final concentrations of 0.039–2.5 uM. After 7 min of incubation at room temperature, TO fluorescence was monitored using a multimodal plate reader TECAN Spark (Tecan Group Ltd., Männedorf Switzerland) at the excitation λ = 480 nm; fluorescence was recorded at λ = 530 nm. The bandwidth was 10 nm. The concentration of the drug that caused a decrease in TO fluorescence by 50% (EC50) was determined by approximating the experimental data using a non-linear regression algorithm and calculated using the GraphPad Prism software v.9.1.1 (GraphPad Software, San Diego, CA, USA).

Compound | IC50 [1] [nM] | % of sub-G1 apoptotic cells (at IC50) (22Rv1 cells [2]) [%] | IC50 (22Rv1 cells [3]) [nM] | IC50 (DU145 cells) [nM] | IC50 (22Rv1 cells [4]) [nM] | IC50 (LNCaP cells) [nM] | IC50 (PC-3 cells) [nM] | Cell cycle arrest (at IC50) (22Rv1 cells [6]) | EC50 [7] [nM] | IC50 (HEK-293 cells) [nM] | IC50 (PNT2 cells) [nM] | IC50 (MRC-9 cells) [nM] | Selectivity index, IC50 (non-prostate) / IC50 (prostate) [5] | Selectivity index, IC50 (non-cancer) / IC50 (cancer) [5] | Selectivity index (SI), for Figure 2B,C ([5]; both SI definitions (Figure 2B,C))
O=C1c2cc(Br)ccc2-[n+]2ccc3c([nH]c4ccc(Cl)cc43)c21.[Cl-] [Compound 12, 12,13-dihydro-2-bromo-9-chloro-13-oxopyrido[1,2-a:3,4-b’]diindol-5-ium chloride] | 5230 | 6.95±0.901 | 1640 ± 850 | 2080 ± 580 | 2890 ± 890 | 2700 ± 173 | 13200 ± 2870 | No |  | 750 ± 65 | 3330 ± 806 | 36300 ± 9510 | 3.82 | 2.58 | 
O=C1c2ccc(Br)cc2-[n+]2ccc3c([nH]c4ccccc43)c21 [Compound 3, 3-bromofascaplysin] | 3300 | 23.3±9.19 | 240 ± 41 | 1510 ± 130 | 417 ± 60 | 1250 ± 380 | 10000 ± 6750 |  | 700 ± 30 | 1010 ± 71 | 727 ± 60 | 2300 ± 870 | 0.59 | 0.41 | 
Cc1cc2c([nH]c3ccccc32)c2[n+]1-c1ccccc1C2=O.[Cl-] [Compound 19, 12,13-dihydro-6-methyl-13-oxopyrido[1,2-a:3,4-b’]diindol-5-ium chloride] | 2180 | 14.2±0.567 | 2030 ± 609 | 2240 ± 890 | 1590 ± 514 | 2240 ± 810 | 2670 ± 140 |  | 380 ± 20 | 1820 ± 387 | 3250 ± 795 | 2980 ± 930 | 1.00 | 1.23 | 
O=C1c2ccccc2-[n+]2ccc3c([nH]c4ccc(I)cc43)c21.[Cl-] [Compound 7, 12,13-dihydro-9-iodo-13-oxopyrido[1,2-a:3,4-b’]diindol-5-ium chloride] | 1180 | 6.3±0.906 | 80 ± 4 | 319 ± 75 | 550 ± 71 | 171 ± 35 | 3670 ± 200 |  | 2140 ± 100 | 809 ± 164 | 145 ± 66 | 924 ± 132 | 0.89 | 0.53 | < 1
O=C1c2cc(Br)ccc2-[n+]2ccc3c([nH]c4ccccc43)c21.[Cl-] [Compound 4, 12,13-dihydro-2-bromo-13-oxopyrido[1,2-a:3,4-b’]diindol-5-ium chloride] | 1550 | 8.83±0.7 | 260 ± 54 | 1900 ± 634 | 529 ± 69 | 349 ± 81 | 3400 ± 1890 |  | 1360 ± 30 | 1100 ± 74 | 820 ± 76 | 4270 ± 662 | 1.92 | 1.34 | 

The next molecules have a lower IC50 [1] than those just listed; values first:

IC50 [1] [nM] | % of sub-G1 apoptotic cells (at IC50) (22Rv1 cells [2]) [%] | IC50 (22Rv1 cells [3]) [nM] | IC50 (DU145 cells) [nM] | IC50 (22Rv1 cells [4]) [nM] | IC50 (LNCaP cells) [nM] | IC50 (PC-3 cells) [nM] | Cell cycle arrest (at IC50) (22Rv1 cells [6]) | EC50 [7] [nM] | Compound | IC50 (HEK-293 cells) [nM] | IC50 (PNT2 cells) [nM] | IC50 (MRC-9 cells) [nM] | Selectivity index, IC50 (non-prostate) / IC50 (prostate) [5] | Selectivity index, IC50 (non-cancer) / IC50 (cancer) [5] | Selectivity index (SI), for Figure 2B,C ([5]; both SI definitions (Figure 2B,C))
300 | 7±1.4 | 172 ± 74 | 491 ± 68 | 185 ± 39 | 141 ± 58 | 391 ± 84 |  | 1160 ± 20 | O=C1c2ccccc2-[n+]2cc(-c3ccccc3)c3c([nH]c4ccccc43)c21.[Cl-] [Compound 16, 12,13-dihydro-7-phenyl-13-oxopyrido[1,2-a:3,4-b’]diindol-5-ium chloride] | 538 ± 69 | 434 ± 21 | 596 ± 110 | 1.73 | 1.73 | 
950 | 13.4±0.92 | 375 ± 90 | 2370 ± 450 | 271 ± 46 | 611 ± 47 | 564 ± 98 |  | 1030 ± 30 | CCc1c[n+]2c(c3[nH]c4ccccc4c13)C(=O)c1ccccc1-2.[Cl-] [Compound 17, 12,13-dihydro-7-ethyl-13-oxopyrido[1,2-a:3,4-b’]diindol-5-ium chloride] | 700 ± 211 | 490 ± 90 | 1450 ± 645 | 1.25 | 0.92 | 

— publication PMC8949187, “Study of Structure–Activity Relationships of the Marine Alkaloid Fascaplysin and Its Derivatives as Potent Anticancer Agents” (Marine Drugs, 2022)
